Literature values in patent US9617270B2, “Cytotoxic benzodiazepine derivatives” (priority 2012, dated 2017).

Conditions: Phase I clinical evaluation

For C=C1C[C@H]2C=Nc3cc(OCCCOc4cc5c(cc4OC)C(=O)N4CC(=C)C[C@H]4C=N5)c(OC)cc3C(=O)N2C1 [SJG-136], the adverse effects noted is listed as “vascular leak syndrome, peripheral edema, liver toxicity and fatigue”, the maximum tolerated dose is listed as 45 μg/m^2 and the “DNA damage in circulating lymphocytes” value (circulating lymphocytes) is listed as “noted at all doses”.
